#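 Where inhibition never reached the appropriate level, the endpoint shown equals the highest concentration tested. Otherwise, values were interpolated linearly from a five-concentration, 48-hour dose response in 96-well plates. Abbreviation: GI50, concentration required for 50% inhibition of growth.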 Calls of active or inactive are those of the source. No stated cut-off is given here; in the data, active = GI50 up to about 1.1 µM and inactive = higher.
# Columns and labels:
# Experiment in all cases: inhibition of tumour cell growth, NCI panel, 48 h
# 786-0 = tested on: 786-0
# A498 = tested on: A498
# A549 = tested on: A549
# ACHN = tested on: ACHN
# BT-549 = tested on: BT-549
# CAKI-1 = tested on: CAKI-1
# CCRF-CEM = tested on: CCRF-CEM
# COLO 205 = tested on: COLO 205
# DU-145 = tested on: DU-145
# EKVX = tested on: EKVX
# HCC 2998 = tested on: HCC 2998
# HCT-116 = tested on: HCT-116
# HCT-15 = tested on: HCT-15
# HL-60 = tested on: HL-60
# HOP-62 = tested on: HOP-62
# HOP-92 = tested on: HOP-92
# HT-29 = tested on: HT-29
# Hs-578T = tested on: Hs-578T
# IGROV-1 = tested on: IGROV-1
# K562 = tested on: K562
# KM12 = tested on: KM12
# LOX IMVI = tested on: LOX IMVI
# M14 = tested on: M14
# MCF7 = tested on: MCF7
# MDA-MB-435 = tested on: MDA-MB-435
# MDA-N = tested on: MDA-N
# MOLT-4 = tested on: MOLT-4
# Malme-3M = tested on: Malme-3M
# NCI-H226 = tested on: NCI-H226
# NCI-H23 = tested on: NCI-H23
# NCI-H460 = tested on: NCI-H460
# NCI-H522 = tested on: NCI-H522
# NCI/ADR-RES = tested on: NCI/ADR-RES
# OVCAR-3 = tested on: OVCAR-3
# OVCAR-4 = tested on: OVCAR-4
# OVCAR-5 = tested on: OVCAR-5
# OVCAR-8 = tested on: OVCAR-8
# PC-3 = tested on: PC-3
# RPMI-8226 = tested on: RPMI-8226
# RXF 393 = tested on: RXF 393
# SF-268 = tested on: SF-268
# SF-295 = tested on: SF-295
# SF-539 = tested on: SF-539
# SK-MEL-28 = tested on: SK-MEL-28
# SK-MEL-2 = tested on: SK-MEL-2
# SK-MEL-5 = tested on: SK-MEL-5
# SK-OV-3 = tested on: SK-OV-3
# SN12C = tested on: SN12C
# SNB-19 = tested on: SNB-19
# SNB-75 = tested on: SNB-75
# SR = tested on: SR
# SW-620 = tested on: SW-620
# T47D = tested on: T47D
# TK-10 = tested on: TK-10
# U-251 = tested on: U-251
# UACC-257 = tested on: UACC-257
# UACC-62 = tested on: UACC-62
# UO-31 = tested on: UO-31
compound,measurement,setting,value
CCOC(=O)Cn1nnc2cc(Nc3nc4ccccc4nc3C(=O)OCC)ccc21,GI50,786-0,67 µM (inactive)
same,GI50,A498,46.1 µM (inactive)
same,GI50,A549,> 100 µM (inactive)
same,GI50,ACHN,> 100 µM (inactive)
same,GI50,BT-549,> 100 µM (inactive)
same,GI50,CAKI-1,> 100 µM (inactive)
same,GI50,CCRF-CEM,> 100 µM (inactive)
same,GI50,COLO 205,> 100 µM (inactive)
same,GI50,DU-145,> 100 µM (inactive)
same,GI50,EKVX,33.7 µM (inactive)
same,GI50,HCC 2998,> 100 µM (inactive)
same,GI50,HCT-116,> 100 µM (inactive)
same,GI50,HCT-15,> 100 µM
same,GI50,HL-60,> 100 µM (inactive)
same,GI50,HOP-62,24.4 µM (inactive)
same,GI50,HOP-92,20.9 µM (inactive)
same,GI50,HT-29,> 100 µM (inactive)
same,GI50,Hs-578T,36.5 µM (inactive)
same,GI50,IGROV-1,> 100 µM (inactive)
same,GI50,K562,> 100 µM (inactive)
same,GI50,KM12,> 100 µM (inactive)
same,GI50,LOX IMVI,> 100 µM (inactive)
same,GI50,M14,> 100 µM (inactive)
same,GI50,MCF7,> 100 µM (inactive)
same,GI50,MDA-MB-435,> 100 µM (inactive)
same,GI50,MDA-N,> 100 µM (inactive)
same,GI50,MOLT-4,> 100 µM (inactive)
same,GI50,Malme-3M,> 100 µM (inactive)
same,GI50,NCI-H226,> 100 µM (inactive)
same,GI50,NCI-H23,> 100 µM (inactive)
same,GI50,NCI-H460,> 100 µM (inactive)
same,GI50,NCI-H522,> 100 µM (inactive)
same,GI50,NCI/ADR-RES,64.9 µM (inactive)
same,GI50,OVCAR-3,> 100 µM (inactive)
same,GI50,OVCAR-4,> 100 µM (inactive)
same,GI50,OVCAR-5,> 100 µM (inactive)
same,GI50,OVCAR-8,49.7 µM (inactive)
same,GI50,PC-3,> 100 µM (inactive)
same,GI50,RPMI-8226,> 100 µM (inactive)
same,GI50,RXF 393,18.6 µM (inactive)
same,GI50,SF-268,22.5 µM (inactive)
same,GI50,SF-295,26.4 µM (inactive)
same,GI50,SF-539,17.3 µM (inactive)
same,GI50,SK-MEL-28,> 100 µM (inactive)
same,GI50,SK-MEL-2,78.2 µM (inactive)
same,GI50,SK-MEL-5,> 100 µM (inactive)
same,GI50,SK-OV-3,50.2 µM (inactive)
same,GI50,SN12C,> 100 µM (inactive)
same,GI50,SNB-19,29 µM (inactive)
same,GI50,SNB-75,4.21 µM (inactive)
same,GI50,SR,> 100 µM (inactive)
same,GI50,SW-620,> 100 µM (inactive)
same,GI50,T47D,> 100 µM (inactive)
same,GI50,TK-10,22.5 µM (inactive)
same,GI50,U-251,36 µM (inactive)
same,GI50,UACC-257,> 100 µM (inactive)
same,GI50,UACC-62,> 100 µM (inactive)
same,GI50,UO-31,2 µM (inactive)
CSc1nc(C)cc(Nc2ccc(O)c(CN3CCCCC3)c2)n1,GI50,786-0,23.1 µM (inactive)
same,GI50,A498,23.1 µM (inactive)
same,GI50,A549,> 100 µM (inactive)
same,GI50,ACHN,83 µM (inactive)
same,GI50,BT-549,> 100 µM (inactive)
same,GI50,CAKI-1,> 100 µM (inactive)
same,GI50,COLO 205,29 µM (inactive)
same,GI50,DU-145,64.3 µM (inactive)
same,GI50,EKVX,27.5 µM (inactive)
same,GI50,HCT-116,27.8 µM (inactive)
same,GI50,HCT-15,86.3 µM
same,GI50,HOP-62,> 100 µM (inactive)
same,GI50,HOP-92,72.4 µM (inactive)
same,GI50,HT-29,20.4 µM (inactive)
same,GI50,Hs-578T,> 100 µM (inactive)
same,GI50,IGROV-1,60.5 µM (inactive)
same,GI50,K562,30.6 µM (inactive)
same,GI50,KM12,> 100 µM (inactive)
same,GI50,LOX IMVI,33 µM (inactive)
same,GI50,M14,16.3 µM (inactive)
same,GI50,MCF7,67.6 µM (inactive)
same,GI50,MDA-MB-435,57.5 µM (inactive)
same,GI50,MDA-N,28 µM (inactive)
same,GI50,MOLT-4,57.7 µM (inactive)
same,GI50,Malme-3M,48.6 µM (inactive)
same,GI50,NCI-H226,32.4 µM (inactive)
same,GI50,NCI-H23,77.4 µM (inactive)
same,GI50,NCI-H522,72.1 µM (inactive)
same,GI50,NCI/ADR-RES,> 100 µM (inactive)
same,GI50,OVCAR-3,> 100 µM (inactive)
same,GI50,OVCAR-4,> 100 µM (inactive)
same,GI50,OVCAR-5,28.6 µM (inactive)
same,GI50,OVCAR-8,> 100 µM (inactive)
same,GI50,RPMI-8226,23.3 µM (inactive)
same,GI50,RXF 393,67.6 µM (inactive)
same,GI50,SF-268,> 100 µM (inactive)
same,GI50,SF-295,37.9 µM (inactive)
same,GI50,SF-539,43.3 µM (inactive)
same,GI50,SK-MEL-28,28.8 µM (inactive)
same,GI50,SK-MEL-5,25.3 µM (inactive)
same,GI50,SK-OV-3,> 100 µM (inactive)
same,GI50,SN12C,56.6 µM (inactive)
same,GI50,SNB-19,> 100 µM (inactive)
same,GI50,SNB-75,> 100 µM (inactive)
same,GI50,SR,32.1 µM (inactive)
same,GI50,SW-620,71.9 µM (inactive)
same,GI50,T47D,68.1 µM (inactive)
same,GI50,UACC-62,60.8 µM (inactive)
same,GI50,UO-31,48.1 µM (inactive)
